Measured values published in patent US10167296B2, “Sulfoximine substituted quinazolines for pharmaceutical compositions” (EVOTEC INTERNATIONAL GMBH, priority 2014, dated 2019).

Tests used:
[1] = target: MNK2a (pre-activated GST-MNK2a) (Homo sapiens (Human), UniProt Q9HBH9); test: MNK2a in vitro kinase assay (assay 1), ADP-Glo; format: biochemical; conditions: read-out: Mnk2 IC50
Experimental: A. MNK2a In Vitro Kinase Assay (Assay 1)
The inhibition of kinase activity of MNK2a was assessed using pre-activated GST-MNK2a. The white, 384-well OptiPlate F plates were purchased from PerkinElmer. The ADP-Glo Kinase Assay (including ultra pure ATP) was purchased from Promega (V9103). Activated MNK2a was obtained as described in WO2011/104340. […] ID No. 5 of WO 2011/104340 by the C-terminal —CONH2 group, was purchased from Thermo Fisher Scientific. All other materials were of highest grade commercially available. Compounds are tested in either serial dilutions or single dose concentrations. The compound stock solutions are 10 mM in 100% DMSO The serial compound dilutions are prepared in 100% DMSO followed by 1:27.3 intermediate dilution in assay buffer. The final DMSO concentration in assay will be <3%.
In the 384-well plates 3 μl of test compound from the intermediate dilution is mixed with 4 μl of the activated MNK2 enzyme (final concentration of 10 nM) and 4 μl of the peptide (final concentration of 25 μM)/ultra pure ATP (final concentration of 20 μM), all dissolved in assay buffer. This step is followed by an incubation time of 90 min, then 10 μl of ADP Glo reagent are added, followed by 40 min of incubation. Then 20 μl of kinase detection reagent are admixed. The plates are sealed and after an incubation period of 30 min, the luminescence signal is measured in an Envision reader to determine the amount of produced ADP. All incubation steps are performed at room temperature.
The assay buffer consists of 20 mM HEPES, 2 mM DTT, 0.01% BSA, 20 mM MgCl2 and 0.1% Pluronic F-127.
The luminescent signal generated is proportional to the ADP concentration produced and is correlated with activated MNK2 activity. The analysis of the data is performed by the calculation of the percentage of ATP consumption of activated MNK2 in the presence of the test compound compared to the consumption of ATP in the presence of activated MNK2 without compound. (RLU(sample)−RLU(low control))*100/(RLU(high value)−RLU(low control))
[RLU=Relative Luminescence Units]
Values of more than 100% CTL are normally related to compound/sample specific physico-chemical properties (e.g. solubility, light absorbance, fluorescence).
IC50 values based on dose response curves are calculated with the AssayExplorer software.

[2] = target: MNK1a (pre-activated GST-MNK1a) (Homo sapiens (Human), UniProt Q9BUB5); test: MNK1 in vitro kinase assay (assay 2), Z'-LYTE; format: biochemical; conditions: for inhibition at 1 µM: compound concentration of 1 μM, read-out: Mnk1 % Inh
Description: B. MNK1 In Vitro Kinase Assay (Assay 2)
MNK1 Data can be obtained from the MNK1 Z′-LYTE® assay. The MNK1 Z′-LYTE® screening protocol and assay conditions are also described on www.invitrogen.com.
The assay is described as follows:
The Z′-LYTE® biochemical assay employs a fluorescence-based, coupled-enzyme format and is based on the differential sensitivity of phosphorylated and non-phosphorylated peptides to proteolytic cleavage. The peptide substrate is labeled with two fluorophores—one at each end—that make up a FRET pair.
In the primary reaction, the kinase transfers the gamma-phosphate of ATP to a single tyrosine, serine or threonine residue in a synthetic FRET-peptide. In the secondary reaction, a site-specific protease recognizes and cleaves non-phosphorylated FRET-peptides. Phosphorylation of FRET-peptides suppresses cleavage by the Development Reagent. Cleavage disrupts FRET between the donor (i.e., coumarin) and acceptor (i.e., fluorescein) fluorophores on the FRET-peptide, whereas uncleaved, phosphorylated FRET-peptides maintain FRET. A ratiometric method, which calculates the ratio (the Emission Ratio) of donor emission to acceptor emission after excitation of the donor fluorophore at 400 nm, is used to quantitate reaction progress, as shown in the equation below. Emission Ratio=Coumarin Emission(445 nm)/Fluorescein Emission(520 nm)
The inhibition of kinase activity of MNK1a was assessed using pre-activated GST-MNK1a. The 2×MKNK1 (MNK1) mixture is prepared in 50 mM HEPES pH 7.5, 0.01% BRIJ-35, 10 mM MgCl2, 4 mM MnCl2, 1 mM EGTA, 2 mM DTT. The final 10 μL Kinase Reaction consists of 13.5-54 ng MKNK1 (MNK1) and 2 μM Ser/Thr 07 in 50 mM HEPES pH 7.5, 0.01% BRIJ-35, 10 mM MgCl2, 2 mM MnCl2, 1 mM EGTA, 1 mM DTT. After the 1 hour Kinase Reaction incubation, 5 μL of a 1:32768 dilution of Development Reagent A is added.
The Test Compounds are screened in 1% DMSO (final) in the well.
All Peptide/Kinase Mixtures are diluted to a 2×working concentration in the MNK1 Kinase Buffer.
All ATP Solutions are diluted to a 4×working concentration in Kinase Buffer (50 mM HEPES pH 7.5, 0.01% BRIJ-35, 10 mM MgCl2, 1 mM EGTA).
Development Reagent Solution:
The Development Reagent is diluted in Development Buffer
Bar-coded Corning, low volume NBS, 384-well plate (Corning Cat. #3676)
1. 2.5 μL—4×Test Compound
2. 5 μL—2×Peptide/Kinase Mixture
5. 60-minute Kinase Reaction incubation at room temperature
6. 5 μL—Development Reagent Solution
8. 60-minute Development Reaction incubation at room temperature
9. Read on fluorescence plate reader and analyze the data
The following equations are used for each set of data points:
Correction for Background Fluorescence: FISample−FITCFI Ctl Emission Ratio (using values corrected for background fluorescence):Coumarin Emission (445 nm)/Fluorescein Emission (520 nm)
% Phosphorylation (% Phos): 1−((Emission Ratio×F100%)−C100%)/((C0%−C100%)+[Emission Ratio×(F100%−F0%)])*100
% Inhibition: 1−(% PhosSample/% Phos0% Inhibition Ctl)*100 FI=Fluorescence Intensity C100%=Average Coumarin emission signal of the 100% Phos. Control C0%=Average Coumarin emission signal of the 0% Phos. Control F100%=Average Fluorescein emission signal of the 100% Phos. Control F0%=Average Fluorescein emission signal of the 0% Phos. Control
SelectScreen® Kinase Profiling Service uses XLfit from IDBS. The dose response curve is curve fit to model number 205 (sigmoidal dose-response model).

Sequence of MNK1a (pre-activated GST-MNK1a) (Q9BUB5 other isoform, or with tags, fused parts or gaps): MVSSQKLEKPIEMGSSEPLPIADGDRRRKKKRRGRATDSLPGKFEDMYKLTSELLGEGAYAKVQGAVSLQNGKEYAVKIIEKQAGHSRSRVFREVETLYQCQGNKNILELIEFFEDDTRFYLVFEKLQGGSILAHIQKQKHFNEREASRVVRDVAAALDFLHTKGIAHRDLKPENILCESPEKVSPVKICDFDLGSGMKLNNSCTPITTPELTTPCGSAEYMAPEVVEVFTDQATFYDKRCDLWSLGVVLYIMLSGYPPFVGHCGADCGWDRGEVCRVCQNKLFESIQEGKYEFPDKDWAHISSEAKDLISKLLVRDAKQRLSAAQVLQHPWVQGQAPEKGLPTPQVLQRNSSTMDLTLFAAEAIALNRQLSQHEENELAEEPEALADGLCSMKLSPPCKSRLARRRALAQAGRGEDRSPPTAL
Sequence of MNK2a (pre-activated GST-MNK2a) (Q9HBH9 whole entry): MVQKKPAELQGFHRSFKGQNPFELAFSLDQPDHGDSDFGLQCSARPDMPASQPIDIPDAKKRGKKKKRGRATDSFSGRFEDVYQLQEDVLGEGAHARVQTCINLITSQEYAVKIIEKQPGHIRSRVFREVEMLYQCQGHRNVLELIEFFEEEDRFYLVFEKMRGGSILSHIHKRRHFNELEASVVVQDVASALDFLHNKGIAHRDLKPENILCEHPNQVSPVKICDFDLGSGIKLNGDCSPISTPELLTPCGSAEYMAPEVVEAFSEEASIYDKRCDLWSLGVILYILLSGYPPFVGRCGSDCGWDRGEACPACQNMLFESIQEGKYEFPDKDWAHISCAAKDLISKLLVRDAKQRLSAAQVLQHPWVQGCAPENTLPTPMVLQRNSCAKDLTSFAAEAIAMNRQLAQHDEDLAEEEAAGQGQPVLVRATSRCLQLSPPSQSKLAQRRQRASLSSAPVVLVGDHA

| IC50 [1] | IC50 [2] | inhibition at 1 µM [2] | SMILES |
| --- | --- | --- | --- |
| 3.9 nM | 87 nM |  | COc1c(N=S2(=O)CCC2)cc2ncnc(Nc3cc4cn[nH]c4cc3OC(C)C)c2c1C [Example 2.27] |
| 2.6 nM |  | 96% | COc1c(N=S(C)(C)=O)cc2ncnc(Nc3ccc(Cl)cc3O[C@H](C)C(=O)NCC(F)(F)F)c2c1C [Example 2.29] |
| 1.3 nM |  | 105% | COc1c(N=S2(=O)CCNCC2)cc2ncnc(Nc3ccc(F)cc3O[C@@H]3CO[C@@H]4CCO[C@@H]43)c2c1C [Example 2.30] |
| 2.1 nM |  | 96% | COc1c(N=S(C)(=O)C(C)C)cc2ncnc(Nc3ccc(F)cc3O[C@@H]3CO[C@@H]4CCO[C@@H]43)c2c1C (stereo partly shown) [Example 2.31] |
| 4.1 nM | 65 nM |  | Cc1c(OCCN2CCN(C)C(=O)C2)c(N=S(C)(C)=O)cc2ncnc(Nc3ccc(F)cc3O[C@H](C)C(F)(F)F)c12 [Example 2.32] |
| 1.6 nM |  | 106% | COc1c(N=S2(=O)CCCC2)cc2ncnc(Nc3ccc(F)cc3O[C@@H]3CO[C@@H]4CCO[C@@H]43)c2c1Cl [Example 2.33] |
| 2 nM |  | 94% | COc1c(N=S(C)(C)=O)cc2ncnc(Nc3ccc(F)cc3OC3CCOCC3)c2c1Cl [Example 2.34] |
| 1.5 nM | 74 nM |  | COc1c(N=S2(=O)CCC2)cc2ncnc(Nc3ccc(F)cc3O[C@H](C)C(F)(F)F)c2c1C [Example 2.35] |
| 1.8 nM | 15 nM |  | COc1c(N=S2(=O)CCCC2)cc2ncnc(Nc3ccc(F)cc3O[C@@H]3CO[C@H]4[C@@H]3OC[C@H]4OC)c2c1C [Example 2.36] |
| 4.1 nM |  | 88% | COc1c(N=S(C)(C)=O)cc2ncnc(Nc3ccc(F)cc3O[C@H](C)C(=O)N[C@@H](C)C(F)(F)F)c2c1C [Example 2.37] |
| 2 nM | 55 nM |  | COc1c(N=S(C)(C)=O)cc2ncnc(Nc3ccc(F)cc3O[C@H]3COC[C@@H]3O)c2c1C [Example 2.38] |
| 2.4 nM | 66 nM |  | COc1c(N=S2(=O)CCC2)cc2ncnc(Nc3ccc(Cl)cc3O[C@H](C)C(=O)NCC(F)(F)F)c2c1C [Example 2.39] |
| 1.3 nM | 16 nM |  | COc1c(N=S(C)(C)=O)cc2ncnc(Nc3ccc(F)cc3O[C@@H]3CO[C@@H]4CCO[C@@H]43)c2c1Cl [Example 2.40] |
| 1.6 nM |  | 106% | COc1c(N=S2(=O)CCC2)cc2ncnc(Nc3ccc(F)cc3O[C@@H]3CO[C@H]4[C@@H]3OC[C@H]4OC)c2c1C [Example 2.41] |
| 1.2 nM | 52 nM |  | COc1c(N=S2(=O)CCC2)cc2ncnc(Nc3ccc(F)cc3O[C@@H]3CO[C@@H]4CCO[C@@H]43)c2c1C [Example 2.42] |
| 2.3 nM |  | 97% | COc1c(N=S(C)(=O)C2CC2)cc2ncnc(Nc3ccc(F)cc3O[C@@H]3CO[C@@H]4CCO[C@@H]43)c2c1C (stereo partly shown) [Example 2.43] |

| IC50 [1] | IC50 [2] | inhibition at 1 µM [2] | SMILES |
| --- | --- | --- | --- |
| 1.4 nM | 41 nM |  | COc1c(N=S2(=O)CCCC2)cc2ncnc(Nc3ccc(F)cc3O[C@H]3CC[C@H](O)CC3)c2c1C [Example 2.44] |
| 1.7 nM | 17 nM |  | COc1c(N=S(C)(C)=O)cc2ncnc(Nc3ccc(F)cc3O[C@@H]3CO[C@H]4[C@@H]3OC[C@H]4OC)c2c1C [Example 2.45] |
| 2 nM | 37 nM |  | COc1c(N=S2(=O)CCCC2)cc2ncnc(Nc3ccc(F)cc3O[C@H]3COC[C@@H]3O)c2c1C [Example 2.46] |
| 1.4 nM | 28 nM |  | COc1c(N=S(C)(C)=O)cc2ncnc(Nc3ccc(F)cc3O[C@H](C)C(=O)NCC(F)(F)F)c2c1Cl [Example 2.47] |
| 1.3 nM | 22 nM |  | COc1c(N=S2(=O)CCCC2)cc2ncnc(Nc3ccc(F)cc3O[C@H]3CCOC3)c2c1C [Example 2.48] |
| 2.3 nM |  | 95% | COc1c(N=S(C)(C)=O)cc2ncnc(Nc3cccnc3O[C@@H]3CO[C@@H]4CCO[C@@H]43)c2c1C [Example 2.49] |
| 2 nM | 44 nM |  | COc1c(N=S(C)(C)=O)cc2ncnc(Nc3ccc(F)cc3O[C@H]3CCOC3)c2c1C [Example 2.50] |
| 6.9 nM |  | 77% | Cc1c(O)c(N=S(C)(C)=O)cc2ncnc(Nc3ccc(F)cc3O[C@H](C)C(F)(F)F)c12 [Example 2.51] |
| 2.3 nM |  | 100% | COc1c(N=S2(=O)CCCC2)cc2ncnc(Nc3ccc(F)cc3O[C@H](C)C(=O)NCC(F)(F)F)c2c1C [Example 2.52] |
| 1.6 nM |  | 105% | COc1c(N=S2(=O)CCC2)cc2ncnc(Nc3ccc(F)cc3O[C@H](C)C(=O)N[C@@H](C)C(F)(F)F)c2c1C [Example 2.53] |
| 1.6 nM |  | 91% | COc1c(N=S2(=O)CCCC2)cc2ncnc(Nc3ccc(F)cc3O[C@H](C)C(F)(F)F)c2c1C [Example 2.54] |
| 1.6 nM |  | 104% | COc1c(N=S2(=O)CCCC2)cc2ncnc(Nc3ccc(F)cc3O[C@@H]3CO[C@H]4[C@@H]3OC[C@H]4OC)c2c1Cl [Example 2.55] |
| 2.7 nM |  | 97% | COc1c(N=S2(=O)CCCC2)cc2ncnc(Nc3ccc(Cl)cc3O[C@H](C)C(=O)NCC(F)(F)F)c2c1C [Example 2.56] |
| 1.1 nM | 22 nM |  | COc1c(N=S2(=O)CCC2)cc2ncnc(Nc3ccc(F)cc3O[C@H]3CCOC3)c2c1C [Example 2.57] |
| 2.4 nM | 38 nM |  | COc1c(N=S2(=O)CCC2)cc2ncnc(Nc3ccc(F)cc3O[C@H]3CC[C@H](O)CC3)c2c1C [Example 2.58] |
| 1.4 nM |  | 108% | COc1c(N=S2(=O)CCC2)cc2ncnc(Nc3ccc(F)cc3O[C@@H]3CO[C@@H]4CCO[C@@H]43)c2c1Cl [Example 2.59] |
